One test has as its system T-cell. Nature of the test: cells. Conditions: Homo sapiens.
A further test concerns HFF. Nature of the test: cells. Particulars: Homo sapiens.
Test [1] addresses Tyrosine-protein kinase JAK2 (Homo sapiens, UniProt O60674).
Test [2] concerns the target Tyrosine-protein kinase JAK1 (Homo sapiens, UniProt P23458).
The next test is described as follows: cells. Conditions: Homo sapiens, HUO3.

Each structure is given as a SMILES string.

Sequence of Tyrosine-protein kinase JAK1 (P23458 whole entry): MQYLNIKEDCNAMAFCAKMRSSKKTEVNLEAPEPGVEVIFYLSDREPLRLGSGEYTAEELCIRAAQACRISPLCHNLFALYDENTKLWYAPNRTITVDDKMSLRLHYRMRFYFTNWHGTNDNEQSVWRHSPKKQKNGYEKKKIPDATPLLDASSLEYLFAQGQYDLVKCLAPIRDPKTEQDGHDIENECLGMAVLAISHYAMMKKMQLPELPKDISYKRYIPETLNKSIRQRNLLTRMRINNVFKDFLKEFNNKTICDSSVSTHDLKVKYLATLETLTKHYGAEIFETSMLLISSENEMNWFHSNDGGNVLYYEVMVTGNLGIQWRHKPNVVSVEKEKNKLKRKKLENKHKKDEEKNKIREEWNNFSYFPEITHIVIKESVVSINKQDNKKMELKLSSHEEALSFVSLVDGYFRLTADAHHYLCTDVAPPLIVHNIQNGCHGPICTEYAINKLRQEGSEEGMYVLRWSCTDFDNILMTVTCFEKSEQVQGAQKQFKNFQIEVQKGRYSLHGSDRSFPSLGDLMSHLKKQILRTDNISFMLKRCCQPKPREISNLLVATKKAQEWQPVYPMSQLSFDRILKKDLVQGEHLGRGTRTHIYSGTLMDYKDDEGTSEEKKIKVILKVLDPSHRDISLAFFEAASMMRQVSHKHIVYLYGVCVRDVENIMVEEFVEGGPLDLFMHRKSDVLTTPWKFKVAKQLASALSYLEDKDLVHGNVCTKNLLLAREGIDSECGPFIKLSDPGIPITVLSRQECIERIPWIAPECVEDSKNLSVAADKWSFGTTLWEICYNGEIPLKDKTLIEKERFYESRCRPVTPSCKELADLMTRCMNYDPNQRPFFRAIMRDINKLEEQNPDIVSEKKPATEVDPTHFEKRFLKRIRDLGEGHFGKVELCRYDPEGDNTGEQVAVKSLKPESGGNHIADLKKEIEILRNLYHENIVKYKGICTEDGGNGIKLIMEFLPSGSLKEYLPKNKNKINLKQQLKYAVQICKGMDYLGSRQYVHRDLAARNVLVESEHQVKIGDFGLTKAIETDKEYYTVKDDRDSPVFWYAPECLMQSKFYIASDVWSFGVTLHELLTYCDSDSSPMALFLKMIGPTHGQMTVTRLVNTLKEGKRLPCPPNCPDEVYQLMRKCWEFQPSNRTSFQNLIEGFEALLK
Sequence of Tyrosine-protein kinase JAK2 (O60674 whole entry): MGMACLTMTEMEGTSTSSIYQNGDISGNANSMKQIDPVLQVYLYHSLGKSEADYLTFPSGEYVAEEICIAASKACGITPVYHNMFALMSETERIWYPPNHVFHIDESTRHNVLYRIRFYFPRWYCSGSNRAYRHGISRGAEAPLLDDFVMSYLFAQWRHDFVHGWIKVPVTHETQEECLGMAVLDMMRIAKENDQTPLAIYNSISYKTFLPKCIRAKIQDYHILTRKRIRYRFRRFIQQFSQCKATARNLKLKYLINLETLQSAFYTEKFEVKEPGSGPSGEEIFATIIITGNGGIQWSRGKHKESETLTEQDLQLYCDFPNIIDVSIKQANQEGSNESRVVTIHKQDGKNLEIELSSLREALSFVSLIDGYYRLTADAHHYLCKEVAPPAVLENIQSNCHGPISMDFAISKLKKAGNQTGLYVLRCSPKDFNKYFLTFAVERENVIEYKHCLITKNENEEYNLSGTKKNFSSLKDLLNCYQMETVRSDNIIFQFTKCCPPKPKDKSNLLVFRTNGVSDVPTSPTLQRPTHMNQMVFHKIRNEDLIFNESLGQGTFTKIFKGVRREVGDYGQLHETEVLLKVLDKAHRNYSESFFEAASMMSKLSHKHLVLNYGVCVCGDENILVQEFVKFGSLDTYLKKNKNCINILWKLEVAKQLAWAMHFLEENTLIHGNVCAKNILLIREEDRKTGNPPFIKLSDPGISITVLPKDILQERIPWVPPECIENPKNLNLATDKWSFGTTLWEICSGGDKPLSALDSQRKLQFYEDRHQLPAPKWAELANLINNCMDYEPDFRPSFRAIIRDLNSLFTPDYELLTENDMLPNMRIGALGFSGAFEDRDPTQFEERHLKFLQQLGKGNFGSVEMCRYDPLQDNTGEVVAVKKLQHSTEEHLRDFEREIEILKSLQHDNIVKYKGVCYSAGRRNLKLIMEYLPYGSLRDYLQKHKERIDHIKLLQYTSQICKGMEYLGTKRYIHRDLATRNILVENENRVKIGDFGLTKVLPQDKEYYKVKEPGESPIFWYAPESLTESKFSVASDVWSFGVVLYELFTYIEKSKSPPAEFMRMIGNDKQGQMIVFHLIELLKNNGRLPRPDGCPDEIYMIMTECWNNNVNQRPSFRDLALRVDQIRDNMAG
Description for HFF: Inhibition of fetal calf serum-induced proliferation of human foreskin fibroblast assessed as [3H]thymidine incorporation after 4 days by scintillation counting
Description for T-cell: Inhibition of IL2-induced proliferation of human T cells assessed as [3H]thymidine incorporation after 72 hrs by scintillation counting

For `c1ccc2c(c1)C1CCCCC1N2c1ncnc2[nH]ccc12` (stereo not given), the results for the IC50 with T-cell and with HFF were 3.69 µM and 10 µM, respectively.

As to `COc1cc2ncnc(Nc3ccc(O)c(Br)c3)c2cc1OC`, the IC50 (usually the concentration at which inhibition is half-maximal) in test [1] was greater than 10 µM; in test [2], greater than 10 µM; with T-cell, 5.09 µM; in the test with HFF, 6.34 µM.

As to `N#C/C(=C\c1ccc(O)c(O)c1)C(=O)NCc1ccccc1`, the concentration for half-maximal inhibition (IC50) in test [1] is greater than 10 µM; in test [2] it was 3.38 µM; in the test on T-cell it was 3.75 µM; with HFF, 5.58 µM; in “cells”, 7.56 µM.

For the compound `COc1cc2ncnc(Nc3ccc(O)cc3)c2cc1OC` [WHI-P131], the IC50 (in test [1]; in test [2]; in the test with T-cell; in “cells”) was greater than 10 µM each time.

The values are drawn from ChEMBL document CHEMBL1152817, “Prevention of organ allograft rejection by a specific Janus kinase 3 inhibitor” (Science, 2003).
